#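 Grown in 96-well plates, cells were treated for 48 hours with each compound at five concentrations. Insufficient inhibition: endpoint recorded as highest concentration tested. The concentration for full growth arrest is given as TGI.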
# Legend:
# Experiment in all cases: NCI anticancer screen, dose series, 48 h
# M19-MEL melanoma = tested on: M19-MEL melanoma
# IGROV1 ovarian = tested on: IGROV1 ovarian
# HT29 colon = tested on: HT29 colon
# TK-10 renal = tested on: TK-10 renal
# NCI-H23 lung = tested on: NCI-H23 lung
# UO-31 renal = tested on: UO-31 renal
# DLD-1 colon = tested on: DLD-1 colon
# HOP-62 NSCLC = tested on: HOP-62 NSCLC
# HCC-2998 colon = tested on: HCC-2998 colon
# RPMI-8226 leukemia = tested on: RPMI-8226 leukemia
# COLO 205 colon = tested on: COLO 205 colon
# MALME-3M melanoma = tested on: MALME-3M melanoma
# NCI-H226 lung = tested on: NCI-H226 lung
# MOLT-4 leukemia = tested on: MOLT-4 leukemia
# M14 melanoma = tested on: M14 melanoma
# KM12 colon = tested on: KM12 colon
# U251 CNS = tested on: U251 CNS
# UACC-62 melanoma = tested on: UACC-62 melanoma
# 786-0 renal = tested on: 786-0 renal
# K-562 leukemia = tested on: K-562 leukemia
# SF-268 CNS = tested on: SF-268 CNS
# KM20L2 colon = tested on: KM20L2 colon
# OVCAR-5 ovarian = tested on: OVCAR-5 ovarian
# RXF 393 renal = tested on: RXF 393 renal
# UACC-257 melanoma = tested on: UACC-257 melanoma
# SK-MEL-2 melanoma = tested on: SK-MEL-2 melanoma
# SF-539 CNS = tested on: SF-539 CNS
# DMS 114 small cell lung = tested on: DMS 114 small cell lung
# SNB-75 CNS = tested on: SNB-75 CNS
# ACHN renal = tested on: ACHN renal
# OVCAR-3 ovarian = tested on: OVCAR-3 ovarian
# HCT-116 colon = tested on: HCT-116 colon
# NCI-H460 lung = tested on: NCI-H460 lung
# LOX IMVI melanoma = tested on: LOX IMVI melanoma
# CCRF-CEM leukemia = tested on: CCRF-CEM leukemia
# LXFL 529 NSCLC = tested on: LXFL 529 NSCLC
# A549 NSCLC = tested on: A549 NSCLC
# SK-MEL-28 melanoma = tested on: SK-MEL-28 melanoma
# HL-60(TB) leukemia = tested on: HL-60(TB) leukemia
# SK-MEL-5 melanoma = tested on: SK-MEL-5 melanoma
# OVCAR-8 ovarian = tested on: OVCAR-8 ovarian
# SW-620 colon = tested on: SW-620 colon
# EKVX NSCLC = tested on: EKVX NSCLC
# NCI-H522 lung = tested on: NCI-H522 lung
# SF-295 CNS = tested on: SF-295 CNS
# HOP-92 NSCLC = tested on: HOP-92 NSCLC
# SK-OV-3 ovarian = tested on: SK-OV-3 ovarian
# SNB-19 CNS = tested on: SNB-19 CNS
# DMS 273 small cell lung = tested on: DMS 273 small cell lung
# HS 578T breast = tested on: HS 578T breast
# DU-145 prostate = tested on: DU-145 prostate
# NCI/ADR-RES ovarian = tested on: NCI/ADR-RES ovarian
# SNB-78 CNS = tested on: SNB-78 CNS
# MDA-MB-435 = tested on: MDA-MB-435
# BT-549 breast = tested on: BT-549 breast
# MDA-MB-231 breast = tested on: MDA-MB-231 breast
# CAKI-1 renal = tested on: CAKI-1 renal
# HCT-15 colon = tested on: HCT-15 colon
# OVCAR-4 ovarian = tested on: OVCAR-4 ovarian
# T-47D breast = tested on: T-47D breast
# PC-3 prostate = tested on: PC-3 prostate
# A498 renal = tested on: A498 renal
# MDA-N = tested on: MDA-N
# SN12C renal = tested on: SN12C renal
# MCF7 breast = tested on: MCF7 breast
# SR leukemia = tested on: SR leukemia
# XF 498 CNS = tested on: XF 498 CNS
compound,measurement,setting,value
C/C(CC(=O)Nc1cccc([N+](=O)[O-])c1)=N/NC(N)=S,TGI,M19-MEL melanoma,> 100 µM
same,TGI,IGROV1 ovarian,> 100 µM
same,TGI,HT29 colon,> 100 µM
same,TGI,TK-10 renal,> 100 µM
same,TGI,NCI-H23 lung,> 100 µM
same,TGI,UO-31 renal,> 100 µM
same,TGI,DLD-1 colon,> 100 µM
same,TGI,HOP-62 NSCLC,> 100 µM
same,TGI,HCC-2998 colon,> 100 µM
same,TGI,RPMI-8226 leukemia,> 100 µM
same,TGI,COLO 205 colon,> 100 µM
same,TGI,MALME-3M melanoma,> 100 µM
same,TGI,NCI-H226 lung,> 100 µM
same,TGI,MOLT-4 leukemia,> 100 µM
same,TGI,M14 melanoma,> 100 µM
same,TGI,KM12 colon,> 100 µM
same,TGI,U251 CNS,> 100 µM
same,TGI,UACC-62 melanoma,> 100 µM
same,TGI,786-0 renal,> 100 µM
same,TGI,K-562 leukemia,> 100 µM
same,TGI,SF-268 CNS,> 100 µM
same,TGI,KM20L2 colon,> 100 µM
same,TGI,OVCAR-5 ovarian,> 100 µM
same,TGI,RXF 393 renal,> 100 µM
same,TGI,UACC-257 melanoma,> 100 µM
same,TGI,SK-MEL-2 melanoma,> 100 µM
same,TGI,SF-539 CNS,> 100 µM
same,TGI,DMS 114 small cell lung,> 100 µM
same,TGI,SNB-75 CNS,> 100 µM
same,TGI,ACHN renal,> 100 µM
same,TGI,OVCAR-3 ovarian,> 100 µM
same,TGI,HCT-116 colon,> 100 µM
same,TGI,NCI-H460 lung,> 100 µM
same,TGI,LOX IMVI melanoma,> 100 µM
same,TGI,CCRF-CEM leukemia,> 100 µM
same,TGI,LXFL 529 NSCLC,> 100 µM
same,TGI,A549 NSCLC,> 100 µM
same,TGI,SK-MEL-28 melanoma,> 100 µM
same,TGI,HL-60(TB) leukemia,> 100 µM
same,TGI,SK-MEL-5 melanoma,> 100 µM
same,TGI,OVCAR-8 ovarian,> 100 µM
same,TGI,SW-620 colon,> 100 µM
same,TGI,EKVX NSCLC,> 100 µM
same,TGI,NCI-H522 lung,> 100 µM
same,TGI,SF-295 CNS,> 100 µM
same,TGI,HOP-92 NSCLC,> 100 µM
same,TGI,SK-OV-3 ovarian,> 100 µM
O=C(/C=C/c1ccc(O)c(O)c1)c1ccc(O)cc1O,TGI,M19-MEL melanoma,27.1 µM
same,TGI,SNB-19 CNS,43.9 µM
same,TGI,IGROV1 ovarian,35.1 µM
same,TGI,HT29 colon,33.4 µM
same,TGI,TK-10 renal,60.3 µM
same,TGI,NCI-H23 lung,39.9 µM
same,TGI,UO-31 renal,30.3 µM
same,TGI,DLD-1 colon,29.3 µM
same,TGI,HOP-62 NSCLC,42.4 µM
same,TGI,HCC-2998 colon,34.2 µM
same,TGI,RPMI-8226 leukemia,55.2 µM
same,TGI,COLO 205 colon,31 µM
same,TGI,MALME-3M melanoma,28.7 µM
same,TGI,NCI-H226 lung,37.6 µM
same,TGI,MOLT-4 leukemia,55.9 µM
same,TGI,M14 melanoma,34.7 µM
same,TGI,KM12 colon,24.3 µM
same,TGI,U251 CNS,17.6 µM
same,TGI,UACC-62 melanoma,48.3 µM
same,TGI,786-0 renal,25.5 µM
same,TGI,DMS 273 small cell lung,25 µM
same,TGI,HS 578T breast,78.8 µM
same,TGI,K-562 leukemia,25.4 µM
same,TGI,DU-145 prostate,18.9 µM
same,TGI,SF-268 CNS,37.6 µM
same,TGI,KM20L2 colon,31.3 µM
same,TGI,OVCAR-5 ovarian,32.8 µM
same,TGI,RXF 393 renal,25.8 µM
same,TGI,UACC-257 melanoma,29.9 µM
same,TGI,SK-MEL-2 melanoma,33.4 µM
same,TGI,SF-539 CNS,25.8 µM
same,TGI,DMS 114 small cell lung,7.55 µM
same,TGI,SNB-75 CNS,25.2 µM
same,TGI,ACHN renal,45.3 µM
same,TGI,OVCAR-3 ovarian,37.4 µM
same,TGI,NCI/ADR-RES ovarian,> 84.1 µM
same,TGI,HCT-116 colon,28 µM
same,TGI,SNB-78 CNS,58.3 µM
same,TGI,NCI-H460 lung,36.3 µM
same,TGI,LOX IMVI melanoma,24 µM
same,TGI,CCRF-CEM leukemia,> 71.7 µM
same,TGI,MDA-MB-435,29.1 µM
same,TGI,A549 NSCLC,72.3 µM
same,TGI,BT-549 breast,14.6 µM
same,TGI,SK-MEL-28 melanoma,30.5 µM
same,TGI,MDA-MB-231 breast,50.8 µM
same,TGI,CAKI-1 renal,28.9 µM
same,TGI,HCT-15 colon,44.3 µM
same,TGI,OVCAR-4 ovarian,37.8 µM
same,TGI,HL-60(TB) leukemia,22.3 µM
same,TGI,SK-MEL-5 melanoma,26.3 µM
same,TGI,OVCAR-8 ovarian,51 µM
same,TGI,T-47D breast,20 µM
same,TGI,PC-3 prostate,52.6 µM
same,TGI,A498 renal,34.7 µM
same,TGI,SW-620 colon,35.2 µM
same,TGI,MDA-N,19.8 µM
same,TGI,SN12C renal,43.9 µM
same,TGI,EKVX NSCLC,75.6 µM
same,TGI,NCI-H522 lung,8.65 µM
same,TGI,MCF7 breast,15.7 µM
same,TGI,SR leukemia,> 78.8 µM
same,TGI,SF-295 CNS,50.3 µM
same,TGI,HOP-92 NSCLC,33.3 µM
same,TGI,SK-OV-3 ovarian,38 µM
O=C(CO)CC(=O)C(=O)Nc1cccc(C(F)(F)F)c1,TGI,SNB-19 CNS,> 100 µM
same,TGI,IGROV1 ovarian,> 100 µM
same,TGI,HT29 colon,> 100 µM
same,TGI,TK-10 renal,> 100 µM
same,TGI,NCI-H23 lung,> 100 µM
same,TGI,UO-31 renal,> 100 µM
same,TGI,DLD-1 colon,> 100 µM
same,TGI,HOP-62 NSCLC,> 100 µM
same,TGI,HCC-2998 colon,> 100 µM
same,TGI,RPMI-8226 leukemia,> 100 µM
same,TGI,COLO 205 colon,> 100 µM
same,TGI,MALME-3M melanoma,> 100 µM
same,TGI,NCI-H226 lung,> 100 µM
same,TGI,MOLT-4 leukemia,> 100 µM
same,TGI,M14 melanoma,> 100 µM
same,TGI,KM12 colon,> 100 µM
same,TGI,UACC-62 melanoma,> 100 µM
same,TGI,786-0 renal,> 100 µM
same,TGI,DMS 273 small cell lung,> 100 µM
same,TGI,K-562 leukemia,> 100 µM
same,TGI,SF-268 CNS,> 100 µM
same,TGI,KM20L2 colon,> 100 µM
same,TGI,OVCAR-5 ovarian,> 100 µM
same,TGI,UACC-257 melanoma,> 100 µM
same,TGI,SK-MEL-2 melanoma,> 100 µM
same,TGI,SF-539 CNS,> 100 µM
same,TGI,SNB-75 CNS,> 100 µM
same,TGI,ACHN renal,> 100 µM
same,TGI,OVCAR-3 ovarian,> 100 µM
same,TGI,HCT-116 colon,> 100 µM
same,TGI,NCI-H460 lung,> 100 µM
same,TGI,LOX IMVI melanoma,> 100 µM
same,TGI,LXFL 529 NSCLC,> 100 µM
same,TGI,A549 NSCLC,> 100 µM
same,TGI,SK-MEL-28 melanoma,> 100 µM
same,TGI,CAKI-1 renal,> 100 µM
same,TGI,HCT-15 colon,> 100 µM
same,TGI,XF 498 CNS,> 100 µM
same,TGI,OVCAR-4 ovarian,> 100 µM
same,TGI,HL-60(TB) leukemia,> 100 µM
same,TGI,OVCAR-8 ovarian,> 100 µM
same,TGI,SW-620 colon,> 100 µM
same,TGI,SN12C renal,> 100 µM
same,TGI,NCI-H522 lung,> 100 µM
same,TGI,SR leukemia,> 100 µM
same,TGI,SF-295 CNS,> 100 µM
same,TGI,HOP-92 NSCLC,> 100 µM
same,TGI,SK-OV-3 ovarian,> 100 µM
